Measurements published in patent publication US20250002507A1, “7,8-DIHYDRO-5H-1,6-NAPHTHYRIDINE DERIVATIVES AS POSITIVE ALLOSTERIC MODULATORS OF THE MUSCARINIC ACETYLCHOLINE RECEPTOR M4 FOR TREATING NEUROLOGICAL AND PSYCHIATRIC DISORDERS” (Vanderbilt University, priority 2021, published 2025).

Molecular target: T1, Human M4 (Homo sapiens, UniProt P08173)
T1 construct: expressed in transfected cells
T1 sequence (P08173 1-479): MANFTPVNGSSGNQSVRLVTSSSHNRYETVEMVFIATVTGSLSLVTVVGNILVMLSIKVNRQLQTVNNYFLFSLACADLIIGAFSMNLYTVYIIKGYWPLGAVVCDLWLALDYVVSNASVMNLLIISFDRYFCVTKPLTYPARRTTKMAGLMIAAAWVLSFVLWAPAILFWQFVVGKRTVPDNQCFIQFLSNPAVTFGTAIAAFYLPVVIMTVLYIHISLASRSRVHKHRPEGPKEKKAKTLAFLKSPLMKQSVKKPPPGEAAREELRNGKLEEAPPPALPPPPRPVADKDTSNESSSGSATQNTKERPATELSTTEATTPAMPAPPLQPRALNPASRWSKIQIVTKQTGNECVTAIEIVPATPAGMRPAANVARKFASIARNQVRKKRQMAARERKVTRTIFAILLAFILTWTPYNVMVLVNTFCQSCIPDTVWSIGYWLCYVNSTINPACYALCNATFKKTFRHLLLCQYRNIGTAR
Assay: mAChR M4 cell-based functional assay (calcium flux, potentiation of EC20 acetylcholine response), hM4-Gqi5 CHO-K1 cells
Settings: Table 3; for Emax at 30 µM: CHO-K1, Human M4, % ACh maximum at 30 μM, read-out: Emax (% ACh maximum at 30 μM); for EC50: potentiation of EC20 acetylcholine response, calcium flux, CHO-K1 cells, read-out: Human M4 EC50
Outline: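 CHO-K1 cells stably expressing human M4 with chimeric Gqi5, loaded with Fluo-4 AM 50 min at 37 °C; calcium flux read by FDSS. 11-point 1:3 compound curves added, then EC20 acetylcholine at 144 s; potentiation of the EC20 response fitted by four-parameter logistic to give EC50 and Emax.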

Row | Emax at 30 µM | EC50 | Structure (SMILES)
1 | 65% | 1.21 µM | Cc1c(N2CCc3ncc(-c4ccc(N5CC[C@@H](F)C5)nc4)cc3C2)nn2c(C(F)(F)F)nnc2c1C [Compound 249, (R)-6-(7,8-dimethyl-3-(trifluoromethyl)-[1,2,4]triazolo[4,3-b]pyridazin-6-yl)-3-(6-(3-fluoropyrrolidin-1-yl)pyridin-3-yl)-5,6,7,8-tetrahydro-1,6-naphthyridine]
2 | 60% | 1.25 µM | Cc1c(N2CCc3ncc(-c4ccc(N5CC[C@H](F)C5)nc4)cc3C2)nn2c(C(F)(F)F)nnc2c1C [Compound 250, (S)-6-(7,8-dimethyl-3-(trifluoromethyl)-[1,2,4]triazolo[4,3-b]pyridazin-6-yl)-3-(6-(3-fluoropyrrolidin-1-yl)pyridin-3-yl)-5,6,7,8-tetrahydro-1,6-naphthyridine]
3 | 83% | 0.169 µM | Cc1c(N2CCc3ncc(-c4ccnn4C)cc3C2)nn2c(C(F)(F)F)nnc2c1C [Compound 251, 6-(7,8-dimethyl-3-(trifluoromethyl)-[1,2,4]triazolo[4,3-b]pyridazin-6-yl)-3-(1-methyl-1H-pyrazol-5-yl)-5,6,7,8-tetrahydro-1,6-naphthyridine]
4 | 80% | 0.14 µM | Cc1c(N2CCc3ncc(-c4ccns4)cc3C2)nn2c(C(F)(F)F)nnc2c1C [Compound 252, 5-(6-(7,8-dimethyl-3-(trifluoromethyl)-[1,2,4]triazolo[4,3-b]pyridazin-6-yl)-5,6,7,8-tetrahydro-1,6-naphthyridin-3-yl)isothiazole]
5 | 42% | 1.69 µM | Cc1c(N2CCc3ncc(-c4cnn(C5CCCCC5)c4)cc3C2)nn2c(C(F)(F)F)nnc2c1C [Compound 253, 3-(1-cyclohexyl-1H-pyrazol-4-yl)-6-(7,8-dimethyl-3-(trifluoromethyl)-[1,2,4]triazolo[4,3-b]pyridazin-6-yl)-5,6,7,8-tetrahydro-1,6-naphthyridine]
6 | 76% | 0.494 µM | Cc1c(N2CCc3ncc(-c4ccn(C)n4)cc3C2)nn2c(C(F)(F)F)nnc2c1C [Compound 254, 6-(7,8-dimethyl-3-(trifluoromethyl)-[1,2,4]triazolo[4,3-b]pyridazin-6-yl)-3-(1-methyl-1H-pyrazol-3-yl)-5,6,7,8-tetrahydro-1,6-naphthyridine]
7 | 62% | 0.602 µM | Cc1c(N2CCc3ncc(-c4ccc(C5CC5)nc4)cc3C2)nn2c(C(F)(F)F)nnc2c1C [Compound 255, 3-(6-cyclopropylpyridin-3-yl)-6-(7,8-dimethyl-3-(trifluoromethyl)-[1,2,4]triazolo[4,3-b]pyridazin-6-yl)-5,6,7,8-tetrahydro-1,6-naphthyridine]
8 | 78% | 0.25 µM | Cc1ccc(-c2cnc3c(c2)CN(c2nn4c(C(F)(F)F)nnc4c(C)c2C)CC3)cn1 [Compound 256, 6-(7,8-dimethyl-3-(trifluoromethyl)-[1,2,4]triazolo[4,3-b]pyridazin-6-yl)-3-(6-methylpyridin-3-yl)-5,6,7,8-tetrahydro-1,6-naphthyridine]
9 | 78% | 0.218 µM | Cc1c(N2CCc3ncc(-c4cccnc4)cc3C2)nn2c(C(F)(F)F)nnc2c1C [Compound 257, 6-(7,8-dimethyl-3-(trifluoromethyl)-[1,2,4]triazolo[4,3-b]pyridazin-6-yl)-3-(pyridin-3-yl)-5,6,7,8-tetrahydro-1,6-naphthyridine]
10 | 77% | 0.578 µM | COc1ccc(-c2cnc3c(c2)CN(c2nn4c(C(F)(F)F)nnc4c(C)c2C)CC3)cn1 [Compound 258, 6-(7,8-dimethyl-3-(trifluoromethyl)-[1,2,4]triazolo[4,3-b]pyridazin-6-yl)-3-(6-methoxypyridin-3-yl)-5,6,7,8-tetrahydro-1,6-naphthyridine]
11 | 55% | 1.45 µM | Cc1c(N2CCc3ncc(-c4ccc(C(F)(F)F)nc4)cc3C2)nn2c(C(F)(F)F)nnc2c1C [Compound 259, 6-(7,8-dimethyl-3-(trifluoromethyl)-[1,2,4]triazolo[4,3-b]pyridazin-6-yl)-3-(6-(trifluoromethyl)pyridin-3-yl)-5,6,7,8-tetrahydro-1,6-naphthyridine]
12 | 84% | 7.67 µM | Cc1c(N2CCc3ncc(OCC4COCCO4)cc3C2)nn2cnnc2c1C (centres unmarked) [Compound 260, 3-((1,4-dioxan-2-yl)methoxy)-6-(7,8-dimethyl-[1,2,4]triazolo[4,3-b]pyridazin-6-yl)-5,6,7,8-tetrahydro-1,6-naphthyridine]
13 | 90% | 0.331 µM | Cc1c(N2CCc3ncc(OCC4CC4)cc3C2)nn2cnnc2c1C [Compound 261, 3-(cyclopropylmethoxy)-6-(7,8-dimethyl-[1,2,4]triazolo[4,3-b]pyridazin-6-yl)-5,6,7,8-tetrahydro-1,6-naphthyridine]
14 | 82% | 1.58 µM | Cc1c(N2CCc3ncc(OCC4COC4)cc3C2)nn2cnnc2c1C [Compound 262, 6-(7,8-dimethyl-[1,2,4]triazolo[4,3-b]pyridazin-6-yl)-3-(oxetan-3-ylmethoxy)-5,6,7,8-tetrahydro-1,6-naphthyridine]
15 | 79% | 0.502 µM | Cc1c(N2CCc3ncc(OCC4CC(F)(F)C4)cc3C2)nn2cnnc2c1C [Compound 263, 3-((3,3-difluorocyclobutyl)methoxy)-6-(7,8-dimethyl-[1,2,4]triazolo[4,3-b]pyridazin-6-yl)-5,6,7,8-tetrahydro-1,6-naphthyridine]
16 | 82% | 1.22 µM | Cc1c(N2CCc3ncc(OCC4CCOC4)cc3C2)nn2cnnc2c1C (centres unmarked) [Compound 264, 6-(7,8-dimethyl-[1,2,4]triazolo[4,3-b]pyridazin-6-yl)-3-((tetrahydrofuran-3-yl)methoxy)-5,6,7,8-tetrahydro-1,6-naphthyridine]
17 | 74% | 0.724 µM | Cc1c(N2CCc3ncc(OCc4ccccc4)cc3C2)nn2cnnc2c1C [Compound 265, 3-(benzyloxy)-6-(7,8-dimethyl-[1,2,4]triazolo[4,3-b]pyridazin-6-yl)-5,6,7,8-tetrahydro-1,6-naphthyridine]
18 | 93% | 0.346 µM | Cc1c(N2CCc3ncc(OCC4CC4(F)F)cc3C2)nn2cnnc2c1C (centres unmarked) [Compound 266, 3-((2,2-difluorocyclopropyl)methoxy)-6-(7,8-dimethyl-[1,2,4]triazolo[4,3-b]pyridazin-6-yl)-5,6,7,8-tetrahydro-1,6-naphthyridine]
19 | 100% | 0.037 µM | Cc1c(N2CCc3ncc(N4CCCn5nccc54)cc3C2)nn2c(C(F)(F)F)nnc2c1C [Compound 267, 3-(6,7-dihydropyrazolo[1,5-a]pyrimidin-4(5H)-yl)-6-(7,8-dimethyl-3-(trifluoromethyl)-[1,2,4]triazolo[4,3-b]pyridazin-6-yl)-5,6,7,8-tetrahydro-1,6-naphthyridine]
20 | 95% | 0.143 µM | Cc1c(N2CCc3ncc(C(F)(F)F)cc3C2)nn2c(Cl)nnc2c1C [Compound 268, 6-(3-Chloro-7,8-dimethyl-[1,2,4]triazolo[4,3-b]pyridazin-6-yl)-3-(trifluoromethyl)-7,8-dihydro-5H-1,6-naphthyridine]
21 | 42% | 1.67 µM | Cc1c(N2Cc3cc(C(F)(F)F)cnc3C(C)(C)C2)nn2cnnc2c1C [Compound 269, 6-(7,8-Dimethyl-[1,2,4]triazolo[4,3-b]pyridazin-6-yl)-8,8-dimethyl-3-(trifluoromethyl)-5,6,7,8-tetrahydro-1,6-naphthyridine]
22 | 97% | 0.168 µM | COc1nnc2c(C)c(C)c(N3CCc4ncc(C(F)(F)F)cc4C3)nn12 [Compound 270, 6-(3-Methoxy-7,8-dimethyl-[1,2,4]triazolo[4,3-b]pyridazin-6-yl)-3-(trifluoromethyl)-7,8-dihydro-5H-1,6-naphthyridine]
23 | 89% | 0.264 µM | Cc1c(N2CCc3ncc(N4CCOCC4)cc3C2)nn2c(C(F)(F)F)nnc2c1C [Compound 271, 4-(6-(7,8-dimethyl-3-(trifluoromethyl)-[1,2,4]triazolo[4,3-b]pyridazin-6-yl)-5,6,7,8-tetrahydro-1,6-naphthyridin-3-yl)morpholine]
24 | 87% | 0.831 µM | Cc1c(N2CCc3ncc(NC4CCCC4)cc3C2)nn2c(C(F)(F)F)nnc2c1C [Compound 272, N-cyclopentyl-6-(7,8-dimethyl-3-(trifluoromethyl)-[1,2,4]triazolo[4,3-b]pyridazin-6-yl)-5,6,7,8-tetrahydro-1,6-naphthyridin-3-amine]
25 | 83% | 0.816 µM | Cc1c(N2CCc3ncc(N4CCC5OCCCC5C4)cc3C2)nn2c(C(F)(F)F)nnc2c1C (centres unmarked) [Compound 273, 6-(6-(7,8-dimethyl-3-(trifluoromethyl)-[1,2,4]triazolo[4,3-b]pyridazin-6-yl)-5,6,7,8-tetrahydro-1,6-naphthyridin-3-yl)octahydro-2H-pyrano[3,2-c]pyridine]
